According to publication PMC4304192, “KUD773, a phenylthiazole derivative, displays anticancer activity in human hormone-refractory prostate cancers through inhibition of tubulin polymerization and anti-Aurora A activity” (Journal of Biomedical Science, 2015):

Target: T1, Aurora A kinase (Homo sapiens, UniProt O14965)
T1 construct: gene AURKA
T1 sequence (O14965 1-403): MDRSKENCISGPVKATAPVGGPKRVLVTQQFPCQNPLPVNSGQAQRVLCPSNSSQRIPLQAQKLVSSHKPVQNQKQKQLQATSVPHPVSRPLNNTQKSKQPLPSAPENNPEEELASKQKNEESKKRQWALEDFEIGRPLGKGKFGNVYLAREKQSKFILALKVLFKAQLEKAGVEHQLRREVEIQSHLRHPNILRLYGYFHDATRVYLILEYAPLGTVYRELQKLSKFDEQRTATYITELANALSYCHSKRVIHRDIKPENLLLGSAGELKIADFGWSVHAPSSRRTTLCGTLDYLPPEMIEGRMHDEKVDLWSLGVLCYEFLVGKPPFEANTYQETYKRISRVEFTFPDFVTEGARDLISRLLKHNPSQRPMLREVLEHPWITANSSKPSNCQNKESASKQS
Experiment: Aurora A luminescent kinase assay (Kinase-Glo Plus, […] ATP, LRRWSLG peptide substrate)
Type: biochemical

IC50: 30 µM
SMILES: FC(F)(F)c1cccc(-c2csc(-n3ccnc3)n2)c1 [KUD773, 2-(1H-imidazol-1-yl)-4-(3-(trifluoromethyl)phenyl)thiazole]
